From PubChem BioAssay (NCI)
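Method: 48-hour compound exposure of cells in 96-well plates, five concentrations, linear interpolation of endpoints. TGI: concentration producing complete growth inhibition.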

Legend:
Assay in all cases: DTP human tumour cell line panel, 48 h
SK-MEL-28 melanoma = test system: SK-MEL-28 melanoma
M19-MEL melanoma = test system: M19-MEL melanoma
DLD-1 colon = test system: DLD-1 colon
DMS 114 small cell lung = test system: DMS 114 small cell lung
MALME-3M melanoma = test system: MALME-3M melanoma
SNB-78 CNS = test system: SNB-78 CNS
KM20L2 colon = test system: KM20L2 colon
LXFL 529 NSCLC = test system: LXFL 529 NSCLC
XF 498 CNS = test system: XF 498 CNS
DMS 273 small cell lung = test system: DMS 273 small cell lung
RXF-631 renal = test system: RXF-631 renal
HOP-18 NSCLC = test system: HOP-18 NSCLC

Row | Structure (SMILES) | TGI (SK-MEL-28 melanoma) | TGI (MALME-3M melanoma) | other results
1 | CC(=O)NC1=NC(=O)/C(=C/c2ccc(/C=C3/C(=O)N=C(NC(C)=O)N3C)cc2)N1C | > 100 µM |  | 
2 | CCn1c2ccccc2c2c(-c3ccccc3)cc3c(c21)C(=O)N(c1ccccc1)C3=O | > 100 µM | > 100 µM | TGI (M19-MEL melanoma): > 100 µM; TGI (DLD-1 colon): > 100 µM; TGI (DMS 114 small cell lung): > 100 µM; TGI (SNB-78 CNS): > 100 µM; TGI (KM20L2 colon): > 100 µM; TGI (LXFL 529 NSCLC): > 100 µM; TGI (XF 498 CNS): > 100 µM; TGI (DMS 273 small cell lung): > 100 µM
3 | C#CC(O)/C=C/CCCCCCC#CC/C=C\CC#CCCCCCCCCC(O)C#C (configuration not stated) | 13.1 µM | 4.41 µM | 
4 | CN(CCc1ccccn1)C(=S)N/N=C(\c1ccccc1)c1ccccn1 | 6.01 µM | 3.14 µM | 
5 | Cn1cc(S(=O)(=O)NC(=O)Nc2ccc(Cl)cc2)c(=O)c2ccc(F)cc21 | > 100 µM | > 100 µM | 
6 | COc1ccc(NCC(=O)Nn2c(-c3ccccc3)nc3ccccc3c2=O)cc1 | > 100 µM | 70.2 µM | 
7 | CC1(C)COC2=C(C1)C(=O)c1ccccc1C2=O | 3.11 µM | 3.29 µM | 
8 | Cc1nc2sc(C(=O)c3ccc(Cl)cc3)c(N)c2c(-c2ccccc2Cl)c1C(=O)Nc1ccccc1 | 27.4 µM | 29.2 µM | 
9 | COC1(CC[C@@H](C)COC2OC(CO)C(O)C(O)C2O)O[C@H]2C[C@H]3[C@@H]4CC=C5C[C@@H](OC6OC(CO)C(O)C(OC7OC(CO)C(O)C(O)C7O)C6OC6OC(C)C(O)C(O)C6O)CC[C@]5(C)[C@H]4CC[C@]3(C)[C@H]2[C@@H]1C (some centres not stated) | 12.4 µM | 9.29 µM | 
10 | COc1cc(-c2c3c(cc4c2OCO4)[C@@H](Nc2ccc(-c4ccc(-c5ccc(N[C@@H]6c7cc8c(cc7C(c7cc(OC)c(O)c(OC)c7)[C@H]7C(=O)OC[C@H]67)OCO8)cc5)cc4)cc2)[C@H]2COC(=O)[C@@H]2C3)cc(OC)c1O (some centres not stated) | 15.7 µM | 7.4 µM | 
11 | CN(CCNC(=O)c1c[nH]c2c1Cc1ccccc1-2)CCNC(=O)c1c[nH]c2c1Cc1ccccc1-2 | > 100 µM | > 100 µM | 
12 | COc1cc(OC)c2c(c1)OC(c1cccnc1)C(c1ccccc1)C2=O (configuration not stated) | > 100 µM | > 100 µM | 
13 | Cc1ccc2c(c1)nc1n2C(N)=Nc2ccccc2S1 | > 100 µM | > 100 µM | 
14 | CC(C)(NC(=O)OCc1ccccc1)C(=O)OC(=O)C(C)(C)NC(=O)OCc1ccccc1 | > 100 µM | > 100 µM | 
15 | C=C1C(=O)O[C@H]2C[C@@H]1[C@@H](O)[C@H](O)[C@@H](C)CCCC(C)=CCC[C@@]2(C)O | 77.7 µM | 32.2 µM | 
16 | c1ccc2c(c1)cc1n2CCc2c-1[nH]c1ccccc21 | > 10 µM | > 10 µM | 

Row | Structure (SMILES) | TGI (SK-MEL-28 melanoma) | TGI (MALME-3M melanoma) | other results
17 | COC(=O)Nc1nc2ccc(S(=O)(=O)N3CCOCC3)cc2[nH]1 | > 100 µM | > 100 µM | 
18 | CCOC(=O)/C=C(\C(=O)OCC)n1cc(C)c(=O)n(Cc2cnnn2COCCOC(C)=O)c1=O | 31.5 µM | 3.42 µM | 
19 | NC(=O)CC(N=Cc1nc(-c2ccccc2)oc1O)C(=O)O (configuration not stated) | > 100 µM | > 100 µM | TGI (M19-MEL melanoma): > 100 µM; TGI (RXF-631 renal): > 100 µM; TGI (DLD-1 colon): > 100 µM; TGI (DMS 114 small cell lung): > 100 µM; TGI (SNB-78 CNS): > 100 µM; TGI (KM20L2 colon): > 100 µM; TGI (LXFL 529 NSCLC): > 100 µM; TGI (DMS 273 small cell lung): > 100 µM; TGI (HOP-18 NSCLC): > 100 µM
20 | CCc1c(-c2ccc(OC)cc2)oc(OC)c(C)c1=O | > 100 µM |  | 
21 | COc1cc2c(/C=C3/C(=O)N(C)c4ccc(O)cc43)c(Cl)[nH]c2cc1C | 15.4 µM |  | 
22 | O=C(O)c1nc2ccc(C(F)(F)F)cc2nc1Nc1ccc(F)cc1 | > 100 µM | 38.3 µM | 
23 | CC1=C(C)CC2(C=C(C(C)(C)C)C(=O)C(C(C)(C)C)=C2)SC1 |  | 33.4 µM | 
24 | CCCCOC(=O)C1CC[C@H]2[C@@H]3CCc4cc(OC(=O)c5cccc6c(=O)c7ccccc7[nH]c56)ccc4[C@H]3CC[C@]12C (some centres not stated) | 21.2 µM | 18.7 µM | 
25 | CC(C)=CC(=O)c1[nH]c2ccccc2c1CC(=O)NCCc1cncn1C | > 100 µM | > 100 µM | 
26 | COc1cc(C(C)O)c[n+](CCC2CNc3ccccc32)c1 (configuration not stated) |  | > 100 µM | TGI (M19-MEL melanoma): > 100 µM; TGI (DLD-1 colon): > 100 µM; TGI (DMS 114 small cell lung): > 100 µM; TGI (KM20L2 colon): > 100 µM; TGI (LXFL 529 NSCLC): > 100 µM; TGI (XF 498 CNS): > 100 µM; TGI (DMS 273 small cell lung): > 100 µM
27 | C/C(=C/CC[C@]1(CO)CC[C@]2(C)[C@H](CC[C@@H]3[C@@]4(C)CC[C@H](OC5OC(CO)C(O)C(O)C5OC5OC(CO)C(O)C(O)C5O)C(C)(C)[C@@H]4CC[C@]32C)[C@H]1O)CO (some centres not stated) | > 100 µM | > 100 µM | 
28 | Cc1nc2cc(Nc3ccccc3C(=O)O)ccc2s1 | > 100 µM | > 100 µM | TGI (M19-MEL melanoma): > 100 µM; TGI (DLD-1 colon): > 100 µM; TGI (DMS 114 small cell lung): > 100 µM; TGI (KM20L2 colon): > 100 µM; TGI (LXFL 529 NSCLC): > 100 µM; TGI (DMS 273 small cell lung): > 100 µM; TGI (HOP-18 NSCLC): > 100 µM
29 | O=C(Cn1c(C(=O)c2ccccc2)nc2ccccc21)c1ccccc1 | > 100 µM | > 100 µM | 
30 | C=C(Cl)C(Cl)(CCl)CCC(Br)C(C)(C)Br (configuration not stated) | > 10 µM |  | 
31 | COc1nc2ccc(COc3ccc(C(=O)O)cc3)cc2nc1OC | > 100 µM | > 100 µM | 
32 | Clc1ccc(C[P+](c2ccccc2)(c2ccccc2)c2ccccc2)cc1Cl | 11.4 µM | 7.8 µM | TGI (M19-MEL melanoma): 5.32 µM; TGI (DLD-1 colon): 21.5 µM; TGI (DMS 114 small cell lung): 5.95 µM; TGI (SNB-78 CNS): 42.8 µM; TGI (KM20L2 colon): 13.7 µM; TGI (XF 498 CNS): 3.24 µM; TGI (DMS 273 small cell lung): 7.58 µM; TGI (HOP-18 NSCLC): 11 µM
